Laboratory results as given in ChEMBL document CHEMBL1201862, “PubChem BioAssay data set” (2004).
Active and inactive are the calls of the source.

Key:
[1] = molecular target: Tumor necrosis factor (Homo sapiens, UniProt P01375); experiment: analog potency on TNFa NF-kB signaling – cell-based, set 3, SAR follow-up (AID 2801); format: functional
[2] = molecular target: T1, Interleukin-8 (Homo sapiens, UniProt P10145); experiment: SAR analysis of Tumor necrosis factor alpha (TNF-alpha) induced IL-8 secretion in MCF-7/NOD1 cells - Set 2. [Related pubchem assays (depositor defined):AID1575, AID2250, AID2260]; format: functional, cell-based
T1 sequence (P10145 whole entry): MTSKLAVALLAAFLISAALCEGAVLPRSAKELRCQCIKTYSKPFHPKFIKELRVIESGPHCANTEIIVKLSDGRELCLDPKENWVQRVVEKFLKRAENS

[3] = molecular target: T2, Nucleotide-binding oligomerization domain-containing protein 2 (Homo sapiens, UniProt Q9HC29); experiment: inhibition of NOD2 signaling – set 2, SAR follow-up (AID 2475); format: functional
T2 sequence (Q9HC29 whole entry, the tested form may be a part): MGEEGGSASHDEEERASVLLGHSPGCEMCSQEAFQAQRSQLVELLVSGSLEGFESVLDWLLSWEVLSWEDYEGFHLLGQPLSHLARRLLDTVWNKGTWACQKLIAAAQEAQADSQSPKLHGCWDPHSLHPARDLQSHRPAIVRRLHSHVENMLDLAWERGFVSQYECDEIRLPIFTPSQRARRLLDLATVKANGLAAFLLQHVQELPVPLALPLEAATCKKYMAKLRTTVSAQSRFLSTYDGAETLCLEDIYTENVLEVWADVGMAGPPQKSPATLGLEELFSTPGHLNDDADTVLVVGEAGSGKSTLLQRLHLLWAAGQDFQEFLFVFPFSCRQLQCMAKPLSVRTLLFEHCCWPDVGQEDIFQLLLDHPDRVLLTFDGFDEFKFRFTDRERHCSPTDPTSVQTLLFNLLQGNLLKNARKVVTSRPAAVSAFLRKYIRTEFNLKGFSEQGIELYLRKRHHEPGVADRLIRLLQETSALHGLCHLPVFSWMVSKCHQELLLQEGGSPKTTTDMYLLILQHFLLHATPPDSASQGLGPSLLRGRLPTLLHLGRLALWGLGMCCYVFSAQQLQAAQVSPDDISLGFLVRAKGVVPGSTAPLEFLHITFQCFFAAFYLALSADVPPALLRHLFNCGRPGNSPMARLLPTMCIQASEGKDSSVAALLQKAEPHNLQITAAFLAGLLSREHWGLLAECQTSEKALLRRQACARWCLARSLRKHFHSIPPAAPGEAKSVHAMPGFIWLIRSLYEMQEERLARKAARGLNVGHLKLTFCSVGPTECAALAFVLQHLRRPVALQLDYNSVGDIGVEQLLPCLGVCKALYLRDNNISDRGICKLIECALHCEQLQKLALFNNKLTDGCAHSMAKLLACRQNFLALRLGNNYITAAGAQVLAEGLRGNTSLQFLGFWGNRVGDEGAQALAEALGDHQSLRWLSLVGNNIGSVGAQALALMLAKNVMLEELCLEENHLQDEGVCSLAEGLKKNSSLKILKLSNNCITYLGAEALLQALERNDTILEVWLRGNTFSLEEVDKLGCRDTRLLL

[4] = molecular target: T3, Nucleotide-binding oligomerization domain-containing protein 1 (Homo sapiens, UniProt Q9Y239); experiment: SAR analysis of compounds that inhibit NOD1 - Set 2. [Related pubchem assays (depositor defined):AID1566, AID1575, AID1578, AID1849, AID1852, AID2333, AID2335, AID2798]; format: functional
T3 sequence (Q9Y239 whole entry): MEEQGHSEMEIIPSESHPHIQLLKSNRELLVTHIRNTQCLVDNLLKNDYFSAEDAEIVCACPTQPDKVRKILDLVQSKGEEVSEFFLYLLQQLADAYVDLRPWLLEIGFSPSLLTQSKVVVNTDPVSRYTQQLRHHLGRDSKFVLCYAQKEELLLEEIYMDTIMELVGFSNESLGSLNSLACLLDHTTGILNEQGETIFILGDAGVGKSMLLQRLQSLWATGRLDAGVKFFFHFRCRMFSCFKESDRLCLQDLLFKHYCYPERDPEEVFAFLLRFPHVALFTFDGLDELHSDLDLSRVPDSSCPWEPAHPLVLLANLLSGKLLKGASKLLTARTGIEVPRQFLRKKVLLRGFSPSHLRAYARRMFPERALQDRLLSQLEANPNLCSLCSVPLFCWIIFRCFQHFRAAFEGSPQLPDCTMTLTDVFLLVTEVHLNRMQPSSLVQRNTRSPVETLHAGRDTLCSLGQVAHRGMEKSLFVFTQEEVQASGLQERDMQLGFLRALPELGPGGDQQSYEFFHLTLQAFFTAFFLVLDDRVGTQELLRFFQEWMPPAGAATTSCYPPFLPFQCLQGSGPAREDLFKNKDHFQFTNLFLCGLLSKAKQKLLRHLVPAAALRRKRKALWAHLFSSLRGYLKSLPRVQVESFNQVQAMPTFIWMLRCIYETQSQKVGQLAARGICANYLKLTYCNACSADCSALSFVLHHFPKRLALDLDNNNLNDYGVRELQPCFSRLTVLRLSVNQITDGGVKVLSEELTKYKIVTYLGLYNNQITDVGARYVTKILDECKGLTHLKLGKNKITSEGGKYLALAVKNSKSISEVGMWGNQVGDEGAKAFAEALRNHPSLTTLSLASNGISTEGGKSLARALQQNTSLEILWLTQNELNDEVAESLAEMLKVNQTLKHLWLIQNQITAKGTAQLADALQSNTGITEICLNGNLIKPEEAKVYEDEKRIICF

[5] = test system: HEK293; experiment: SAR analysis of compounds that are cytotoxic to HEK293 - Set 2. [Related pubchem assays (depositor defined):AID1575, AID1578, AID1849, AID2001, AID2333, AID2334, AID2335, AID2337, AID2800]; format: functional, cell-based; conditions: Homo sapiens
[6] = molecular target: T3, Nucleotide-binding oligomerization domain-containing protein 1; experiment: SAR analysis of NF-kappaB dependent luciferase using DAP as an inducer - Set 2. [Related pubchem assays (depositor defined):AID1566, AID1575, AID1578, AID1579, AID1849, AID1852, AID2264]; format: functional
[7] = molecular target: T1, Interleukin-8; experiment: SAR analysis of GM-Tri-DAP induced IL-8 secretion in MCF-7/NOD1 cells - Set 2. [Related pubchem assays (depositor defined):AID1575, AID1578, AID2333]; format: functional, cell-based
[8] = molecular target: T3, Nucleotide-binding oligomerization domain-containing protein 1; experiment: SAR analysis of compounds that inhibit NOD1 - Set 3. [Related pubchem assays (depositor defined):AID1566, AID1575, AID1578, AID1849, AID1852, AID2333, AID2335, AID2466]; format: functional
[9] = test system: HEK293; experiment: SAR analysis of compounds that are cytotoxic to HEK293 - Set 3. [Related pubchem assays (depositor defined):AID1575, AID1578, AID1848, AID1849, AID2001, AID2333, AID2334, AID2335, AID2337, AID2469]; format: functional, cell-based; conditions: Homo sapiens
[10] = molecular target: T2, Nucleotide-binding oligomerization domain-containing protein 2; experiment: inhibition of MDP-driven NOD2 NF-kB reporter – cell-based, set 3, SAR follow-up (AID 2799); format: functional
[11] = alpha-synuclein stem-loop luciferase translation blockers – H4 neuroglioma cells, luminescence, confirmation (AID 1988); format: functional, cell-based
[12] = cells; format: functional
[13] = Luminescence Cell-Based Dose Response HTS to Identify Inhibitors of 5'UTR Stem-Loop Driven Prion Protein mRNA Translation in H4 Neuroglioblastoma Cells. [Related pubchem assays: 1827 (Project Summary), 1813 (Primary HTS)]; format: functional
[14] = molecular target: Beta Lactamase (Pseudomonas aeruginosa, UniProt Q932Y6); experiment: BLA reporter interference, concentration series – BLA reporter cells, FRET fluorescence, artefact control for TLR9-MyD88 binding inhibitor project, dose response (AID 588341); format: cell-based;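 note: cell based assay in CHO-K1 cells stably expressing beta-lactamase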
[15] = molecular target: T4, Kappa-type opioid receptor (Homo sapiens, UniProt P41145); format: functional
T4 sequence (P41145 whole entry): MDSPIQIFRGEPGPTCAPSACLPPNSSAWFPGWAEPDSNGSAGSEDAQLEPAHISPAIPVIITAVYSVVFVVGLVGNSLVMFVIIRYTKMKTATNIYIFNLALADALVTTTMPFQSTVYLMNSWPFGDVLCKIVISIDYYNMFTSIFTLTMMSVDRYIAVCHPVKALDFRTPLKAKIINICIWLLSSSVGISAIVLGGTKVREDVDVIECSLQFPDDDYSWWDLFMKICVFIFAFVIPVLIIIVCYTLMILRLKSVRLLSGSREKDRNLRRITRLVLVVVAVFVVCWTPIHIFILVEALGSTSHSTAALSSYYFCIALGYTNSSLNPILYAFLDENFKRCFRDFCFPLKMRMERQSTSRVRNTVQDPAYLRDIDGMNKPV

[16] = molecular target: T4, Kappa-type opioid receptor; format: functional; remark: listed apart in the source
[17] = THP-1 cell cytotoxicity, dose response, cytotoxicity control for non-replicating M. tuberculosis project (AID 489025); format: functional
[18] = molecular target: T5, Heat shock factor protein 1 (Mus musculus, UniProt P38532); experiment: enhancement of HSF1-driven luciferase signal – cell-based, NIH3T3, luminescence, dose retest, confirmation (AID 435004); format: functional;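 note: stress induced by proteasome inhibitor MG132 added 30 min after compound; luciferase reporter driven by HSF1 response element in NIH3T3 cells; actives raise luminescence as potentiators of the MG132 stress response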
T5 sequence (P38532 whole entry): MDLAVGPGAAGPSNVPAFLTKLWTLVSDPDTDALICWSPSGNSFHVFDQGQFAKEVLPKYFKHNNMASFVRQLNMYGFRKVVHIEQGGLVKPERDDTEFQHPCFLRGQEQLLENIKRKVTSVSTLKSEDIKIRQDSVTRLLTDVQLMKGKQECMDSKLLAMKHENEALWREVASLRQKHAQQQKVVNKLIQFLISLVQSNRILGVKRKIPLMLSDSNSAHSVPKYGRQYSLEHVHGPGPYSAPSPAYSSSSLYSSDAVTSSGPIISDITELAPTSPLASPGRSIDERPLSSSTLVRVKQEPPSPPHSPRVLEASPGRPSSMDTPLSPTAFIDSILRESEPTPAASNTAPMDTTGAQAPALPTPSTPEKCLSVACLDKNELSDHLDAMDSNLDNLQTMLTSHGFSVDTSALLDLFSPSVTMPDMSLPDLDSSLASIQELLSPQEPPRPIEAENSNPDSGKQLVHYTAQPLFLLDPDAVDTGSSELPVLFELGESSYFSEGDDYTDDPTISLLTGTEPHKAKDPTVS

[19] = molecular target: Beta-galactosidase (Escherichia coli, UniProt Q8VNN2); format: functional
[20] = Vero E6 cell cytotoxicity, dose response, cytotoxicity control for non-replicating M. tuberculosis project, secondary assay (AID 492998); format: functional, VeroE6; conditions: Vero C1008
[21] = luciferase reporter signal suppression in cells – H4 neuroglioma cells, luminescence, dose response (AID 1990); format: functional, cell-based
[22] = HepG2 cell cytotoxicity, dose response, cytotoxicity control for non-replicating M. tuberculosis project (AID 489018); format: functional; conditions: Mycobacterium tuberculosis
[23] = test system: CHO; experiment: CHO cell viability loss, potency – luminescence, cytotoxicity control for TLR9-MyD88 binding inhibitor project, dose response (AID 588339); format: functional, cell-based, hamster; conditions: Cricetulus griseus;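 note: CHO cells stably coexpressing TLR9 and MyD88 fusions from primary screen; compound exposure lasted 48 hours before viability readout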
[24] = molecular target: T6, Voltage-gated N-type calcium channel alpha-1B subunit/Amyloid beta A4 precursor protein-binding family A member 1 (Homo sapiens, UniProt Q00975+Q02410); experiment: disruptors of Mint-PDZ/N-type channel peptide interaction – biochemical, HTRF, set 2, SAR follow-up (AID 434980); format: functional
T6 sequence (Q00975 whole entry): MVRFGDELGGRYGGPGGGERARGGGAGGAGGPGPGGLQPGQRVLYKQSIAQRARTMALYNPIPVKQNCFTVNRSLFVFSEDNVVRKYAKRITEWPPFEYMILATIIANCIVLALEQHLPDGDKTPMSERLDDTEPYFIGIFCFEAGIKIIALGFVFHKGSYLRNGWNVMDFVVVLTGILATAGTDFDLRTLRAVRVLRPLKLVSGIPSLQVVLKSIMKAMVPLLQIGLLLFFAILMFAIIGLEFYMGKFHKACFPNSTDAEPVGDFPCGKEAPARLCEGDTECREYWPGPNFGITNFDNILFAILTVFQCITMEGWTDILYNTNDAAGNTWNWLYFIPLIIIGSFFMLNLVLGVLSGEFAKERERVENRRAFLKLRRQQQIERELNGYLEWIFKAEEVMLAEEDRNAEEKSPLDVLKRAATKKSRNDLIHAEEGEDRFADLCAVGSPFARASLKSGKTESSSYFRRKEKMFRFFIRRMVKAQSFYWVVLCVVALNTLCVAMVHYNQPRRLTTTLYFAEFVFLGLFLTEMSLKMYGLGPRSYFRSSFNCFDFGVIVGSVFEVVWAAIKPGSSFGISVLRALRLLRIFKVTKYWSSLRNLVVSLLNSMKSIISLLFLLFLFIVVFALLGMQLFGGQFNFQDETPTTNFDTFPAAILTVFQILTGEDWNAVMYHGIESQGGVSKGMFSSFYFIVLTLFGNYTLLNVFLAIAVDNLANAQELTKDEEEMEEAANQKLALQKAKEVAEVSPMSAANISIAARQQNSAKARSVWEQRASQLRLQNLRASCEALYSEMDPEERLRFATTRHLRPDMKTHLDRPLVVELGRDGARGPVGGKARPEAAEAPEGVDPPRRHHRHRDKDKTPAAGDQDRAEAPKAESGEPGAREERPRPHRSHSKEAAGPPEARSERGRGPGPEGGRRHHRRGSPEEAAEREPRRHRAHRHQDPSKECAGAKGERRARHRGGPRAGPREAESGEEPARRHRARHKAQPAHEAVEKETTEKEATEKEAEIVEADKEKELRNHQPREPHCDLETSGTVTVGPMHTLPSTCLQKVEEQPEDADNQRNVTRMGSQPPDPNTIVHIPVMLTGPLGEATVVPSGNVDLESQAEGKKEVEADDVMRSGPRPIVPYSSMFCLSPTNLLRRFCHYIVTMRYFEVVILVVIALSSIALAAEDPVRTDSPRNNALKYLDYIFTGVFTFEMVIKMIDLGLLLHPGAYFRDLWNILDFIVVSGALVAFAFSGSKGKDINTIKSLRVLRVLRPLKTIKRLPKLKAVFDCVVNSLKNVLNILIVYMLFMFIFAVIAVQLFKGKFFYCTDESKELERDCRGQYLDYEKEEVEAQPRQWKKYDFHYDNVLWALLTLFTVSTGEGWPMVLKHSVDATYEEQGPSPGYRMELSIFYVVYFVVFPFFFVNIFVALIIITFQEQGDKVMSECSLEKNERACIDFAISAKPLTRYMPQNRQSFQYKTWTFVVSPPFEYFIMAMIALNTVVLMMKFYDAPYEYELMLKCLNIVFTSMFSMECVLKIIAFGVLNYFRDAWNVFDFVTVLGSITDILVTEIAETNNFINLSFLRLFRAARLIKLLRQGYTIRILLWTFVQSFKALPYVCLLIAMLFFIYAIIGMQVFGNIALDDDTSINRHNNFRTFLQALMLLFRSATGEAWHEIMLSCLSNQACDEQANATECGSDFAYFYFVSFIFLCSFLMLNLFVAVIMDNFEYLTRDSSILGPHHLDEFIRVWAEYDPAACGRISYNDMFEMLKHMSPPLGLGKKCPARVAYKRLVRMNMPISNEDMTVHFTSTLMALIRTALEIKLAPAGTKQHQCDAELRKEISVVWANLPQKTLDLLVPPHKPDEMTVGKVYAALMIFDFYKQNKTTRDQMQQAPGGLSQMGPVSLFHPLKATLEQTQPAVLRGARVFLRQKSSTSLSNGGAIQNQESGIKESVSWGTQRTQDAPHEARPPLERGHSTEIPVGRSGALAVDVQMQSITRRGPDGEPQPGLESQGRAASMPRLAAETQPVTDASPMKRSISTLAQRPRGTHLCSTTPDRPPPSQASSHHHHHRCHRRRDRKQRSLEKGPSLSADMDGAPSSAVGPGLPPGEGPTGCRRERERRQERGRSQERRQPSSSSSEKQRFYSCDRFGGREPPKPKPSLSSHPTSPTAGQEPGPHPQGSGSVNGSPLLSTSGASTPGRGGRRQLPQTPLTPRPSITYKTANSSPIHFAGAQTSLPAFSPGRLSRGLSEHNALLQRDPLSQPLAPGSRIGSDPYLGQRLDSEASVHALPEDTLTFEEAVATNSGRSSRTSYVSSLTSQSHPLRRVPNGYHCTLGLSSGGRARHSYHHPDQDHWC
T6 sequence (Q02410 whole entry): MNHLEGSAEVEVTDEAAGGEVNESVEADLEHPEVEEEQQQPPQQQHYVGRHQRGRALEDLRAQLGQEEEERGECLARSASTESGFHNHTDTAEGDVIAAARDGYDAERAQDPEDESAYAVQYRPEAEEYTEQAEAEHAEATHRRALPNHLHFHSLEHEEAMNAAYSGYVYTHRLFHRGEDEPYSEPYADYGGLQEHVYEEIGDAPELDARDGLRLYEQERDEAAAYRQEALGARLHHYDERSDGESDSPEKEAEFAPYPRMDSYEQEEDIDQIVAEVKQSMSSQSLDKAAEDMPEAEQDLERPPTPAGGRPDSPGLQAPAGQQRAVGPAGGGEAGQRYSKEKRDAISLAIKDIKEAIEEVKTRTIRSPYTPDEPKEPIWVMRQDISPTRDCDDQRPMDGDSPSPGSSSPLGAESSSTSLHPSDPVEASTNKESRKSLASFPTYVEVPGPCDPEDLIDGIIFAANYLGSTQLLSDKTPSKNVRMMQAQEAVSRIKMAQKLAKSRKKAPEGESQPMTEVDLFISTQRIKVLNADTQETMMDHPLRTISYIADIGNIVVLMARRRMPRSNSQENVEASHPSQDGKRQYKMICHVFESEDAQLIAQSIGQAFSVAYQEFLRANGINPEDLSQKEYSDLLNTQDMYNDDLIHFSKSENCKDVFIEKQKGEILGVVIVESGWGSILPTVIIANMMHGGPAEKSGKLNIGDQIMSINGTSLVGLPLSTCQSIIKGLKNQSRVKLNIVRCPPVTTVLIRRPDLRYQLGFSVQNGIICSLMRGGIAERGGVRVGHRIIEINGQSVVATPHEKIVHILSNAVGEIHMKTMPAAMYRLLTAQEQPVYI

[25] = molecular target: T6, Voltage-gated N-type calcium channel alpha-1B subunit/Amyloid beta A4 precursor protein-binding family A member 1; format: protein assay
[26] = molecular target: T6, Voltage-gated N-type calcium channel alpha-1B subunit/Amyloid beta A4 precursor protein-binding family A member 1; format: protein assay; remark: listed apart in the source
[27] = molecular target: Albumin (Bos taurus, UniProt P02769); experiment: Counterscreen for inhibitors of T-cell receptor (TCR)-CD3 interaction: Fluorescence-based biochemical high throughput dose response assay to identify inhibitors of T-cell receptor (TCR)-CD3 interaction using a TAMRA-labeled BSA probe.; format: functional
[28] = molecular target: Induced myeloid leukemia cell differentiation protein Mcl-1 (Homo sapiens, UniProt Q07820); format: functional
[29] = molecular target: T7, Small ubiquitin-related modifier 1 (Homo sapiens, UniProt P63165); experiment: SUMO1 protein interaction blockers, potency – biochemical, fluorescence polarization, uHTS hits, dose response (AID 624382); format: functional; conditions: read-out: IC50_Mean
T7 sequence (P63165 whole entry): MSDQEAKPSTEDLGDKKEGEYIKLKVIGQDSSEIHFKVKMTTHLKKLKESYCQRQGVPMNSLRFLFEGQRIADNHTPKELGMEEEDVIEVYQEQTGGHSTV

[30] = molecular target: SUMO E1/E2 (Homo sapiens, UniProt P63279+Q9UBE0+Q9UBT2); experiment: SAR analysis of SUMOylation using HTRF in an in-Vitro dose response assay. [Related pubchem assays (depositor defined):AID2006, AID2011, AID2018, AID2069, AID2658]; format: functional
[31] = molecular target: T7, Small ubiquitin-related modifier 1; experiment: SUMO1 protein-protein binding blockers, potency – biochemical, FRET, dose response (AID 624383); format: functional; conditions: read-out: IC50_Mean
[32] = molecular target: Genome polyprotein (Hepatitis C virus, UniProt Q2Q167); experiment: disruption of hepatitis C core self-association – biochemical, TR-FRET, dose response (AID 2159); parameters: species or system Hepacivirus hominis;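 note: blocks dimerization of HCV core protein measured by TR-FRET between tagged core106 pairs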
Genome polyprotein, sequence (Q2Q167 whole entry): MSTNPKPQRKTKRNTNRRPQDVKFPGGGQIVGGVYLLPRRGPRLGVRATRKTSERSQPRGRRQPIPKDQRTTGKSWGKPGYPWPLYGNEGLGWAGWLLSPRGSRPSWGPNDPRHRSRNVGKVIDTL

[33] = molecular target: T6, Voltage-gated N-type calcium channel alpha-1B subunit/Amyloid beta A4 precursor protein-binding family A member 1; experiment: disruptors of Mint-PDZ/N-type channel peptide interaction – biochemical, HTRF, SAR follow-up (AID 2489); format: functional

Tumor necrosis factor, sequence (P01375 whole entry): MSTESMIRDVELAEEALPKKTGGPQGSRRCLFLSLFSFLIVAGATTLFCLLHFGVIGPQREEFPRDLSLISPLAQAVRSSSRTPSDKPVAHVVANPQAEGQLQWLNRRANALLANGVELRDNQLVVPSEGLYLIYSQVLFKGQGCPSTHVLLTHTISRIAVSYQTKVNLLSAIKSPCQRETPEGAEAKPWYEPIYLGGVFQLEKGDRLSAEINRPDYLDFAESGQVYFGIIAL

With `C=CCn1c(SCCCc2ccccc2)nc2c1c(=O)[nH]c(=O)n2C` the IC50 [1] was > 20 µM (inactive), the IC50 [2] was > 25 µM (inactive) and the IC50 [3] was 14.8 µM (active). For the same molecule, the IC50 [4] was 9.33 µM (active), the IC50 [5] was > 20 µM (inactive) and the IC50 [6] was > 25 µM (inactive). For the same molecule, the IC50 [7] was > 25 µM (inactive), the IC50 [8] was > 20 µM (inactive) and the IC50 [9] was > 20 µM (inactive). For the same molecule, the IC50 [10] was > 20 µM (inactive).

In the case of `CS(=O)(=O)c1sc(C#N)c2c1C(=O)CC(c1ccccc1)C2` (stereo not drawn), the EC50 [11] is reported as 7.83 µM (active), the IC50 [12] is reported as 0.78 µM (active) and the EC50 [13] is reported as 10.3 µM (active). The IC50 [14] was 7.08 µM (active), the IC50 [15] was 3.24 µM and the IC50 [16] was 4.62 µM (active). The CC50 [17] was 4.22 µM (active), the EC50 [18] was 17.8 µM (active) and the EC50 [19] was > 31.5 µM (inactive). For the same molecule, the CC50 [20] was 5.26 µM (active), the EC50 [21] was > 120 µM (not active) and the CC50 [22] was 4.85 µM (active). For the same molecule, the IC50 [23] was 2.74 µM (active).

In the case of `CN(C(=O)COC(=O)c1cc(-c2ccco2)nc2ccccc12)C1CCS(=O)(=O)C1` (stereo not drawn), the IC50 [24] is reported as 3.26 µM (active), the IC50 [25] is reported as 2.15 µM (active) and the IC50 [26] is reported as 28.8 µM (active). The IC50 [27] was > 94.1 µM (inactive), the IC50 [28] was 1.59 µM (active) and the IC50 [29] was > 66.6 µM (inactive). The IC50 [30] was 2.66 µM (active), the IC50 [31] was 4.99 µM (active) and the IC50 [32] was > 49.8 µM (not active). For the same molecule, the IC50 [33] was 4.74 µM (active).
